Measured values published in PMC8288134, “Synthesis, potential antitumor activity, cell cycle analysis, and multitarget mechanisms of novel hydrazones incorporating a 4-methylsulfonylbenzene scaffold: a molecular docking study” (Journal of Enzyme Inhibition and Medicinal Chemistry, 2021).

Columns and labels:
[1] = test system: HL-60(TB); design: method as in https://dtp.cancer.gov/dtpstandard/dwindex/index.jsp; conditions: reference drugs, ref https://dtp.cancer.gov/dtpstandard/dwindex/index.jsp; cited from earlier work
[2] = test system: A549/ATCC; design: method as in https://dtp.cancer.gov/dtpstandard/dwindex/index.jsp; conditions: reference drugs, ref https://dtp.cancer.gov/dtpstandard/dwindex/index.jsp; cited from earlier work
[3] = test system: NCI-H460; design: method as in https://dtp.cancer.gov/dtpstandard/dwindex/index.jsp; conditions: reference drugs, ref https://dtp.cancer.gov/dtpstandard/dwindex/index.jsp; cited from earlier work
[4] = test system: HCT-116; design: method as in https://dtp.cancer.gov/dtpstandard/dwindex/index.jsp; conditions: reference drugs, ref https://dtp.cancer.gov/dtpstandard/dwindex/index.jsp; cited from earlier work
[5] = test system: SF-268; design: method as in https://dtp.cancer.gov/dtpstandard/dwindex/index.jsp; conditions: reference drugs, ref https://dtp.cancer.gov/dtpstandard/dwindex/index.jsp; cited from earlier work
[6] = test system: ACHN; design: method as in https://dtp.cancer.gov/dtpstandard/dwindex/index.jsp; conditions: reference drugs, ref https://dtp.cancer.gov/dtpstandard/dwindex/index.jsp; cited from earlier work
[7] = test system: HS 578 T; design: method as in https://dtp.cancer.gov/dtpstandard/dwindex/index.jsp; conditions: reference drugs, ref https://dtp.cancer.gov/dtpstandard/dwindex/index.jsp; cited from earlier work
[8] = test system: MDA-MB-468; design: method as in https://dtp.cancer.gov/dtpstandard/dwindex/index.jsp; conditions: reference drugs, ref https://dtp.cancer.gov/dtpstandard/dwindex/index.jsp; cited from earlier work
[9] = test system: prostate cancer tumour cell lines; conditions: cited from earlier work; for GI50: read-out: GI50 (subpanel average), reference drugs, ref https://dtp.cancer.gov/dtpstandard/dwindex/index.jsp; for CC50: read-out: LC50 (subpanel average), reference drugs, ref https://dtp.cancer.gov/dtpstandard/dwindex/index.jsp; for TGI (subpanel average): reference drugs, ref https://dtp.cancer.gov/dtpstandard/dwindex/index.jsp
[10] = test system: breast cancer tumour cell lines; conditions: cited from earlier work; for GI50: read-out: GI50 (subpanel average), reference drugs, ref https://dtp.cancer.gov/dtpstandard/dwindex/index.jsp; for CC50: read-out: LC50 (subpanel average), reference drugs, ref https://dtp.cancer.gov/dtpstandard/dwindex/index.jsp; for TGI (subpanel average): reference drugs, ref https://dtp.cancer.gov/dtpstandard/dwindex/index.jsp
[11] = test system: HL-60(TB); assay: cells; format: cell-based, human; conditions: Homo sapiens, HL-60, HL-60(TB); one dose 10 µM; read-out: Growth inhibition percentage (GI%)
[12] = test system: NCI-H322M; assay: NCI antitumor screen (SRB); format: cell-based; conditions: Homo sapiens, one dose 10 µM, read-out: Growth inhibition percentage (GI%)
[13] = test system: KM12; assay: NCI antitumor screen (SRB); format: cell-based; conditions: Homo sapiens, one dose 10 µM, read-out: Growth inhibition percentage (GI%)
[14] = test system: MALME-3M; assay: NCI antitumor screen (SRB); format: cell-based; conditions: Homo sapiens, one dose 10 µM, read-out: Growth inhibition percentage (GI%)
[15] = test system: IGROV1; assay: NCI antitumor screen (SRB); format: cell-based; conditions: Homo sapiens, IGROV-1, one dose 10 µM, read-out: Growth inhibition percentage (GI%)
[16] = test system: OVCAR-4; assay: NCI antitumor screen (SRB); format: cell-based; conditions: Homo sapiens, one dose 10 µM, read-out: Growth inhibition percentage (GI%)
[17] = test system: OVCAR-8; assay: NCI antitumor screen (SRB); format: cell-based; conditions: Homo sapiens, one dose 10 µM, read-out: Growth inhibition percentage (GI%)
[18] = test system: NCI/ADR-RES; assay: NCI antitumor screen (SRB); format: cell-based; conditions: Homo sapiens, one dose 10 µM, read-out: Growth inhibition percentage (GI%)
[19] = test system: SK-OV-3; assay: NCI antitumor screen (SRB); format: cell-based; conditions: Homo sapiens, one dose 10 µM, read-out: Growth inhibition percentage (GI%)
[20] = test system: 786-0; assay: NCI antitumor screen (SRB); format: cell-based; conditions: Homo sapiens, one dose 10 µM, read-out: Growth inhibition percentage (GI%)
[21] = test system: TK-10; assay: NCI antitumor screen (SRB); format: cell-based; conditions: Homo sapiens, one dose 10 µM, read-out: Growth inhibition percentage (GI%)
[22] = test system: UO-31; assay: NCI antitumor screen (SRB); format: cell-based, human; conditions: Homo sapiens; UO-31; one dose 10 µM; read-out: Growth inhibition percentage (GI%)
[23] = test system: PC-3; assay: NCI antitumor screen (SRB); format: cell-based; conditions: Homo sapiens, one dose 10 µM, read-out: Growth inhibition percentage (GI%)
[24] = test system: DU-145; assay: NCI antitumor screen (SRB); format: cell-based; conditions: Homo sapiens, one dose 10 µM, read-out: Growth inhibition percentage (GI%)
[25] = test system: MDA-MB-468; assay: NCI antitumor screen (SRB); format: cell-based; conditions: Homo sapiens, one dose 10 µM, read-out: Growth inhibition percentage (GI%)
[26] = test system: HL60 cells; assay: Annexin V-FITC/PI apoptosis assay; format: cell-based, human; conditions: HL60, 10 µM, 24 h
Procedure: Apoptosis induction is the most important mechanism by which major chemotherapeutics kill cancer cells. Apoptosis causes cellular changes whereby the translocation of phosphatidylserine (PS) occurs through the plasma membrane from the inside to the outside. Annexin-V can bind to PS, which can be used as a sensitive probe for PS on the outer side of the plasma membrane. […] The AV/PI staining of HL60 cells was performed at a mixed molar concentration of 10 µM with compounds 6, 9, 16, and 20 for 24 h. Figure 4 and Table 5 show the results of treating HL60 cells with compounds 6, 9, 16, and 20 for 24 h.
According to our previous report, apoptosis induction was performed using the Leukaemia HL-60 cell line and well-established Annexin 5-FITC/PI detection kit. The cell line samples were analysed using FACSCalibur flow cytometer[40]^,[72]. […]
[(Ti-Tz)/Tz)] x 100 for concentration of which Ti ≤ Tz.
The induction of apoptosis was performed according to our previous report using Leukemia HL-
60 cell line and well-established Annexin 5-FITC/PI detection kit. The cell line samples were
analyzed using a FACSCalibur flow cytometer. […]

[27] = test system: full panel of 59 cancer cell lines; assay: NCI antitumor screen, full panel; conditions: one dose 10 µM

SMILES: C#Cc1cccc(Nc2ncnc3cc(OCCOC)c(OCCOC)cc23)c1 [Erlotinib, erlotinib]
- GI50 [1]: 25.1 µM
- GI50 [2]: 10 µM
- GI50 [3]: 6.31 µM
- GI50 [4]: 6.31 µM
- GI50 [5]: 15.8 µM
- GI50 [6]: 0.199 µM
- GI50 [7]: 6.31 µM
- GI50 [8]: 0.126 µM
- GI50 [9]: 20.9 µM
- CC50 [9]: > 100 µM
- TGI (subpanel average) [9]: c (Compounds showed values ≥ 100 µM)
- GI50 [10]: 24.7 µM
- CC50 [10]: 96.4 µM

SMILES: Cc1ccc(C=NNC(=O)c2ccc(S(C)(=O)=O)cc2)cc1 [Compound 9, N'-(4-Methylbenzylidene)-4-(methylsulfonyl)benzohydrazide]
- inhibition at 10 µM [11]: 24.3%
- inhibition at 10 µM [12]: < 10%
- inhibition at 10 µM [13]: 25.1%
- inhibition at 10 µM [14]: 15.2%
- inhibition at 10 µM [15]: 12.3%
- inhibition at 10 µM [16]: < 10%
- inhibition at 10 µM [17]: < 10%
- inhibition at 10 µM [18]: 14.6%
- inhibition at 10 µM [19]: < 10%
- inhibition at 10 µM [20]: < 10%
- inhibition at 10 µM [21]: < 10%
- inhibition at 10 µM [22]: 12.3%
- inhibition at 10 µM [23]: 26.9%
- inhibition at 10 µM [24]: < 10%
- inhibition at 10 µM [25]: 21.5%
- Apoptosis, early [26]: 5.66%
- Apoptosis, late [26]: 9.04%
- Apoptosis, total (annexin V-FITC positive cells) [26]: 16.89%
- Necrosis [26]: 2.19%
- PCE: positive cytotoxic effect (number of cell lines with GI 10 to 100% / total number of cell lines) [27]: 27/59

SMILES: CS(=O)(=O)c1ccc(C(=O)Nc2ccc(Cl)c(-c3ccccn3)c2)c(Cl)c1 [Vismodegib, vismodegib]
- GI50 [1]: 31.6 µM
- GI50 [2]: 39.8 µM
- GI50 [3]: 39.8 µM
- GI50 [4]: 50.1 µM
- GI50 [5]: 39.8 µM
- GI50 [6]: 39.8 µM
- GI50 [7]: 79.4 µM
- GI50 [8]: 19.9 µM

SMILES: O=c1[nH]cc(F)c(=O)[nH]1 [Compound 5-Fu, 5-fluorouracil, reference compound]
- inhibition at 10 µM [11]: 52.1%
- inhibition at 10 µM [12]: 40.5%
- inhibition at 10 µM [13]: 59.3%
- inhibition at 10 µM [14]: 41.8%
- inhibition at 10 µM [15]: 48.8%
- inhibition at 10 µM [16]: 40.6%
- inhibition at 10 µM [18]: 52.4%
- inhibition at 10 µM [19]: 22.5%
- inhibition at 10 µM [20]: 51.3%
- inhibition at 10 µM [21]: 33.1%
- inhibition at 10 µM [22]: 58.7%
- inhibition at 10 µM [23]: 41.8%
- inhibition at 10 µM [24]: 64.5%
- GI50 [9]: 1.46 µM
- CC50 [9]: > 100 µM
- TGI (subpanel average) [9]: c (Compounds showed values ≥ 100 µM)
- GI50 [10]: 6.87 µM
- CC50 [10]: > 100 µM
- TGI (subpanel average) [10]: 68.01 µM

SMILES: CNC(=O)c1cc(Oc2ccc(NC(=O)Nc3ccc(Cl)c(C(F)(F)F)c3)cc2)ccn1 [Sorafenib, sorafenib]
- GI50 [2]: 3.16 µM
- GI50 [3]: 2.51 µM
- GI50 [5]: 2.51 µM
- GI50 [6]: 2.51 µM
- GI50 [8]: 1.99 µM
- GI50 [9]: 2.58 µM
- CC50 [9]: 69.9 µM
- TGI (subpanel average) [9]: 10.27 µM
- CC50 [10]: 57.3 µM
- TGI (subpanel average) [10]: 9.35 µM
